Source: US12648574B2 (priority 2019, dated 2026)
Read-outs that look alike come from different tables or passages of the source.

Key:
[1] = tested on: Xylella fastidiosa subsp. multiplex IVIA 5901.2; format: cell-based; conditions: for mean survival: ampicillin 100 mg/L
[2] = tested on: X. fastidiosa subsp. fastidiosa (IVIA strain 5387.2); format: cell-based, Xylella fastidiosa subsp. fastidiosa; conditions: ampicillin 100 mg/l
[3] = tested on: Xylella fastidiosa subsp. fastidiosa strain 5387.2 in almond plants of the Avijor variety; format: in vivo; conditions: ampicillin 100 mg/L
[4] = tested on: Xylella fastidiosa subsp. fastidiosa IVIA 5387.2; format: cell-based; conditions: for mean survival: streptomycin 100 mg/L
[5] = tested on: Xanthomonas arboricola pv. pruni CFBP 5563; format: cell-based
[6] = tested on: Erwinia amylovora EPS 101; format: cell-based
[7] = tested on: Ralstonia solanacearum CECT 125; format: cell-based; conditions: streptomycin 100 mg/L
[8] = tested on: Xanthomonas fragariae 349-9^a; format: cell-based
[9] = tested on: Erwinia amylovora EPS 101; format: cell-based; remark: listed apart in the source
[10] = tested on: Xylella fastidiosa subsp. pauca DD1 CODiRo; format: cell-based; conditions: streptomycin 100 mg/L
[11] = tested on: Xanthomonas arboricola pv. pruni CFBP 5563; format: cell-based; remark: listed apart in the source
[12] = tested on: Xylella fastidiosa subsp. multiplex IVIA 5901.2; format: cell-based; conditions: streptomycin 100 mg/L
[13] = tested on: EPS101 strain of E. amylovora in pear plants of the Conference variety; parameters: species or system Erwinia amylovora; conditions: in vivo
[14] = tested on: Xanthomonas axonopodis pv. vesicatoria IVIA 2133.2; format: cell-based; conditions: 2 h
[15] = tested on: Pseudomonas syringae pv. syringae EPS 94; format: cell-based
[16] = tested on: Xylella fastidiosa subsp. fastidiosa IVIA 5387.2; format: cell-based; conditions: streptomycin 100 mg/L
[17] = tested on: Xanthomonas axonopodis pv. vesicatoria IVIA 2133.2; format: cell-based
[18] = tested on: X. fastidiosa subsp. pauca strain CoDiRO (DD1); format: cell-based, Xylella fastidiosa subsp. pauca; conditions: streptomycin 100 mg/L
[19] = tested on: 11 phytopathogenic strains; format: cell-based
[20] = 31 days after application, qPCR of sap

CC1(C)S[C@@H]2[C@H](NC(=O)[C@H](N)c3ccccc3)C(=O)N2[C@H]1C(=O)O [ampicillin]
mean survival ([1]; 30 minutes): 2% | mean survival ([1]; 120 minutes): 4.4% | median survival ([2]; 30 minutes): 100% | survival ([2]; 2 hours): 20.6% | plants with decrease of viable bacteria at the inoculation point ([3]; 18 h after application, 4 plants): 25 % of the plants | plants with upward and downward movement of Xylella fastidiosa ([3]; 31 days after application): 75 % of the plants | plants with Xylella fastidiosa not detected in A1 [3, 20]: 25 % of plants | plants with Xylella fastidiosa not detected in A2 [3, 20]: 25 % of plants | plants with Xylella fastidiosa not detected in B [3, 20]: 25 % of plants | severity of infections with respect to untreated control ([3]; curative trunk microinjection, product 20 and 40 μl/ml, 31 days after application): significantly reduced | lower progression of Xylella fastidiosa by the vascular system (qPCR) ([3]; product 20 μl/ml, 14 days after application): not observed | type of effect ([4]; ampicillin 100 mg/L): bacteriostatic effect | survival ([4]; ampicillin 100 mg/L, 30 and 120 minutes, direct suspension or dilution −1): no survival

[H]/N=C(/N)N[C@H]1[C@H](O)[C@@H](O)[C@H](O[C@@H]2O[C@@H](C)[C@](O)(C=O)[C@H]2O[C@@H]2O[C@@H](CO)[C@H](O)[C@@H](O)[C@@H]2NC)[C@@H](N/C(N)=N\[H])[C@@H]1O [streptomycin]
bacterial growth [5]: − | bacterial growth [6]: − | bacterial growth [7]: − | bacterial growth [8]: − | survival [9]: significant reduction | bacterial growth [10]: − | mean survival [11]: 0.01% | survival ([11]; 2 hours): no survival | bacterial growth [12]: − | severity of infections with respect to untreated control [13]: significantly reduced | survival compared to the untreated control ([1]; streptomycin 100 mg/L): no significant differences | survival [14]: 3.06 | bacterial growth [15]: − | bacterial growth [16]: − | bacterial growth [17]: − | survival ([18]; 30 minutes): 89.8% | survival ([18]; 120 minutes): 61.7% | growth of all pathogens tested [19]: inhibited the growth | mean survival ([4]; 30 minutes): 4.4% | mean survival ([4]; 120 minutes): 20%
